Columns and labels:
human CYP11B1 = human CYP11B1 (Homo sapiens (Human), UniProt P15538); experiment: Inhibitory activity against hCYP11B1 in G-402 CYP11B1 high expression stable transformants (cortisol HTRF); assay type: cell-based; details: G-402 CYP11B1 cells, 0.2 μM 11-deoxycortisol, 16 hours; read-out: hCYP11B1 Abs IC50
Experimental: (§1) 1. Experimental System: G-402 CYP11B2 or CYP11B1 High Expression Stable Transformants
(§2) The above-mentioned high-expression stable transformants were constructed based on human […] cell line G-402. The artificial lentiviruses were introduced into human CYP11B2 (NM_000498.3) and CYP11B1 (NM_000497.4), respectively.
(§3) Maintenance medium: McCoy's 5A (modified, #16600082, GIBCO)+10% FBS (GIBCO)+1 μg/mL puromycin (A1113803, GIBCO).
(§4) Resuscitation and seeding medium: McCoy's 5A (modified, #16600082, GIBCO)+10% FBS (GIBCO).
(§5) Reaction medium: DMEM/F12 (#11320033, GIBCO)+2.5% activated charcoal filtered FBS (S11695, R & D).
(§6) Seeding: Cells were cultured to a suitable state after resuscitation with maintenance medium, and 96-well flat plates were seeded with seeding medium according to 1×10^4/100 μL/well (unified cell volume).
(§7) Changing solution: The supernatant was aspirated and discarded after seeding overnight (>12 hours) and adherence. 100-150 μL/well serum-free medium was added, and after being aspirated. After aspiration, 50 μL/well reaction medium was added for later use.
(§8) Formulation: Compound was diluted with reaction medium containing 0.4 μM substrate (final experimental concentration is 0.2 μM):
CYP11B1 substrate: 11-deoxycortisol (11-deoxycortisol, S4775, selleckchem). The final reaction concentration was 0.2 μM.
(§9) Loading: The above compound dilutions were added to the cell plates at 50 μL/well. The background and control wells were set.
(§10) Treating and sampling: The cell plates were incubated in a cell incubator for 16 hours after loading, and then each cell plate was centrifuged at 450 g for 2 min. 75 μL supernatant was transferred to a collection plate and frozen at −80° C. for future use (or direct detection).
(§11) Detection: Homogeneous time-resolved fluorescence kit (Cisbio HTRF kit, Cat.64ALDPEG, Cat.62CRTPEG) was used to determine the concentration of aldosterone or cortisol in the supernatant.
(§12) Analysis: The absolute IC50 (Abs IC50) for each compound was calculated using a four parameter fit.

human CYP11B2 = human CYP11B2 (Homo sapiens (Human), UniProt P19099); experiment: Inhibitory activity against hCYP11B2 in G-402 CYP11B2 high expression stable transformants (aldosterone HTRF); assay type: cell-based; details: for IC50: G-402 CYP11B2 cells, 0.2 μM 11-deoxycorticosterone, 16 hours, read-out: hCYP11B2 (AS) Abs IC50; for hCYP11B ½ Selectivity Fold: hCYP11B1 IC50 relative to hCYP11B2 IC50; for selectivity (in words): hCYP11B2 versus hCYP11B1, compared with reference Baxdrostat
Chain of human CYP11B2 (P19099 25-503): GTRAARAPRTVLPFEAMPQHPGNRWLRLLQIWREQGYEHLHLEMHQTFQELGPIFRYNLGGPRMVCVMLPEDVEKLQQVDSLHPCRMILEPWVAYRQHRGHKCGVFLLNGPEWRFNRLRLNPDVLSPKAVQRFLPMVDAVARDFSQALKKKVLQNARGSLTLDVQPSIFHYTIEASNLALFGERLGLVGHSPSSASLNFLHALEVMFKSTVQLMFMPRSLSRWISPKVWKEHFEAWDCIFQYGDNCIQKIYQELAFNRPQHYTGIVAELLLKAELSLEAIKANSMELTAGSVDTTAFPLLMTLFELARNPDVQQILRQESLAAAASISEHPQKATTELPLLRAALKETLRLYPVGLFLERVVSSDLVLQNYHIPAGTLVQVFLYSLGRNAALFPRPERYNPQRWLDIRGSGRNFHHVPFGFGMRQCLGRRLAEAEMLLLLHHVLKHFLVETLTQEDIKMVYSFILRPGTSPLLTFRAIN
Experimental: as §1, §2, §3, §4, §5, §6, §7, §8
CYP11B2 substrate: 11-deoxycorticosterone (11-deoxycorticosterone, S4243, selleckchem). The final reaction concentration was 0.2 μM
as §9, §10, §11, §12

[1] = Pharmacokinetic test in cynomolgus monkeys (LC/MS); assay type: in vivo, cynomolgus monkeys (Macaca fascicularis); details: for Cmax / Tmax / half-life / AUC(0-t): both sexes, cynomolgus monkey, plasma, 0.05 mg/kg, 0.05mpk oral; for AUC(0-t): read-out: AUC0-24 h
Text: (§13) Adult cynomolgus monkeys (Macaca fascicularis) with suitable body weight and age were selected. 1 male and 1 female cynomolgus monkeys were used for experiment. The adaptation period was 1 week. On the day of the experiment, monkeys were individually housed in stainless steel mesh cages for testing.
(§14) Oral treatment and ACTH working solution (working solution diluted to the desired concentration in PBS sterile solution by ultrapure water filtration through a 0.22 μm filter using Tetracosactrin (HY-P0060, MCE)) were administered as follows: • T=0, 2 monkeys in each group were orally administered 0.5 mg/kg (compound was suspended in 5% aqueous sodium hydroxymethylcellulose solution as vehicle) in a fixed volume of 2 mL/kg; • T=+1 hour (i.e., 1 hour after administration), 14.5 μg/kg of the aforementioned ACTH working solution was injected intramuscularly.
(§15) Sampling test: Blood samples (collected in EDTA anticoagulant tubes) were collected before oral administration (Pre-dose) and 0.5 h, 1 h, 2 h, 4 h, 6 h and 12 h after administration for cortisol concentration measurement in plasma. The blood was centrifuged at 10000 rpm for 15 minutes at 4° C., followed by separation of the plasma and uniform storage at −80° C. for further analysis using an Roche biochemical analyzer to detect aldosterone and cortisol in plasma, and a portion of the plasma (0.5 h, 1 h, 2 h, 4 h, 6 h, and 12 h after administration, and an additional blood collection after 24 h) was taken simultaneously to determine the pharmacokinetic parameters by LC/MS.
(§16) The above experiment was repeated except that: T=0, two monkeys in each group were orally administered at a dose of 0.05 mg/kg (compound was suspended in 5% aqueous sodium hydroxymethylcellulose as vehicle) in a fixed volume of 2 mL/kg.

aldosterone synthesis = experiment: Pharmacodynamic test in cynomolgus monkeys with ACTH stimulation: aldosterone in plasma; assay type: in vivo, cynomolgus monkeys (Macaca fascicularis); details: 0.05 mg/kg oral
Text: as §13, §14, §15, §16

cortisol levels = experiment: Pharmacodynamic test in cynomolgus monkeys with ACTH stimulation: cortisol in plasma; assay type: in vivo, cynomolgus monkeys (Macaca fascicularis); details: 0.05 mg/kg oral
Text: as §13, §14, §15, §16

CYP2D6 = CYP2D6 (Homo sapiens (Human), UniProt P10635); experiment: In vitro inhibitory activity against common CYP450 enzymes: CYP2D6; assay type: in vitro ADME; details: microsomes, substrate Dextromethorphan
Chain of CYP2D6 (P10635 whole entry): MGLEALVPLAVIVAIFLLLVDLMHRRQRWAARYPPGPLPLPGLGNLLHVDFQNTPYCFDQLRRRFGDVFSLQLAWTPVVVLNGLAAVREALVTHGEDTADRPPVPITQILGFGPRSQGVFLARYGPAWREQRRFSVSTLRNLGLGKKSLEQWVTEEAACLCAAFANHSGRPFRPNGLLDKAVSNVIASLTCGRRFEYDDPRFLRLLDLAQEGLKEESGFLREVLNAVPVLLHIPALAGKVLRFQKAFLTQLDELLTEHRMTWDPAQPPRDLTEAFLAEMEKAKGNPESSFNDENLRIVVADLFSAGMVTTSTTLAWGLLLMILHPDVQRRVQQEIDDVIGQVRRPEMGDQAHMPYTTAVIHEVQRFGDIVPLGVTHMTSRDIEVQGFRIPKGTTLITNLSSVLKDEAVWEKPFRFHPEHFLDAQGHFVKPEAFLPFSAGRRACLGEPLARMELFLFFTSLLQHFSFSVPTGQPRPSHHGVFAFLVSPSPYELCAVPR
Experimental: (§17) A working solution of the test compound was prepared in a solvent of dimethyl sulfoxide (DMSO) (starting at a final concentration of 50 μM, 3-fold dilution of 7 concentration points). The corresponding microsomes (CORNING, Cat No.452117) and the corresponding substrate solution were prepared (components were shown in Table 2). The working solution of the test compound and the corresponding microsomes were mixed with the corresponding substrate solution and the HLM working solution. The mixture was preheated in a 37.0° C. water bath for 10 min. NADPH cofactor (BONTAC, Cat No.BT04) was added. The resultant mixture was incubated for 10 min in a 37.0° C. water bath. The reaction was terminated by adding cold stop solution. [table] [table] The sample was centrifuged at 4000 rpm for 20 min to precipitate protein and the supernatant was transferred to HPLC water and shaken for 10 min.

CYP3A = CYP3A (Homo sapiens, UniProt P08684); experiment: In vitro inhibitory activity against common CYP450 enzymes: CYP3A (midazolam); assay type: in vitro ADME; details: human, human liver microsomes, probe Midazolam, substrate Midazolam
Chain of CYP3A (P08684 2-503 limits assumed): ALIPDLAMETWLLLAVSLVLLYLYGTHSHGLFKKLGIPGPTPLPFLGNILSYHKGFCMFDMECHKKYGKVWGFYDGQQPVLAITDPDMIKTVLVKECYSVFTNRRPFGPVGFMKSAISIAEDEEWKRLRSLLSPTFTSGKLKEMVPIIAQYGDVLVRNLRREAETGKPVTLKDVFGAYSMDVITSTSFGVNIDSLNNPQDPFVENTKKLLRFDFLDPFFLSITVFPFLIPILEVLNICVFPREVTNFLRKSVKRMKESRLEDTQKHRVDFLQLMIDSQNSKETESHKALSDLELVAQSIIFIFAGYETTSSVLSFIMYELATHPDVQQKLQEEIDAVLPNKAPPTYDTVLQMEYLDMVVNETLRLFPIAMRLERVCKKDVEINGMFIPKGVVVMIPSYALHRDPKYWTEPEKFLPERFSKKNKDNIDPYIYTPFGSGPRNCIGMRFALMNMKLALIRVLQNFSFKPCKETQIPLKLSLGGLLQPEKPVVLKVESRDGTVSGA
Experimental: as §17

CYP2C19 = CYP2C19 (Homo sapiens (Human), UniProt P33261); experiment: In vitro inhibitory activity against common CYP450 enzymes: CYP2C19; assay type: in vitro ADME; details: microsomes, substrate (S)-(+)-Mephenytoin
Chain of CYP2C19 (P33261 whole entry): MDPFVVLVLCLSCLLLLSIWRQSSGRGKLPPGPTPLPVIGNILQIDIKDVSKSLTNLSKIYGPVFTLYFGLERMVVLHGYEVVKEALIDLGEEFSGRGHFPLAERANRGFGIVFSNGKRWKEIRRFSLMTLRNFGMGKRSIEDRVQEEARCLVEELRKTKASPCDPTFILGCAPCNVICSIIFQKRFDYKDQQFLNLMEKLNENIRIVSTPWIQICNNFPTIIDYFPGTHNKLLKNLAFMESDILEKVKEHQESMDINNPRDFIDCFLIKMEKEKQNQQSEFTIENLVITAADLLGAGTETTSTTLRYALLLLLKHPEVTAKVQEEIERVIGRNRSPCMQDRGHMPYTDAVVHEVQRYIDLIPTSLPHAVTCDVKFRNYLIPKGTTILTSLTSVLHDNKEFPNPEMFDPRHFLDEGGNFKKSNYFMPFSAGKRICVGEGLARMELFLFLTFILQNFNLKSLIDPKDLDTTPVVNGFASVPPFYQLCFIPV
Experimental: as §17

CYP1A2 = CYP1A2 (Homo sapiens (Human), UniProt P05177); experiment: In vitro inhibitory activity against common CYP450 enzymes: CYP1A2; assay type: in vitro ADME; details: human, microsomes, 10 min
Chain of CYP1A2 (P05177 whole entry): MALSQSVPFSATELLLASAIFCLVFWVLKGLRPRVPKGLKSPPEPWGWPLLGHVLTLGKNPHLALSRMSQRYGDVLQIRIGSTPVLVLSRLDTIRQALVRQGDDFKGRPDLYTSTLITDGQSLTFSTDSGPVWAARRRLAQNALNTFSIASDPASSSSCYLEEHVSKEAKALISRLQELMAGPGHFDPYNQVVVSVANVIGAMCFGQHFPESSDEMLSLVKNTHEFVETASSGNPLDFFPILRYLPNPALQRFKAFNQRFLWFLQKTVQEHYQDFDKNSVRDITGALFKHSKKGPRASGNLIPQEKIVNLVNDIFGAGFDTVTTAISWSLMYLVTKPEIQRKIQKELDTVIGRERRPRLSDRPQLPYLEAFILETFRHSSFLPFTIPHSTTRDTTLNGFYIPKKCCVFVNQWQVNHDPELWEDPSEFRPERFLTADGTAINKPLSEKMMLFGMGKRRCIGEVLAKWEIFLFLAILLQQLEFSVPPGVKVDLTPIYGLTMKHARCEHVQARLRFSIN
Experimental: as §17

CYP2C9 = CYP2C9 (Homo sapiens (Human), UniProt P11712); experiment: In vitro inhibitory activity against common CYP450 enzymes: CYP2C9; assay type: in vitro ADME; details: microsomes, substrate Diclofenac
Chain of CYP2C9 (P11712 whole entry): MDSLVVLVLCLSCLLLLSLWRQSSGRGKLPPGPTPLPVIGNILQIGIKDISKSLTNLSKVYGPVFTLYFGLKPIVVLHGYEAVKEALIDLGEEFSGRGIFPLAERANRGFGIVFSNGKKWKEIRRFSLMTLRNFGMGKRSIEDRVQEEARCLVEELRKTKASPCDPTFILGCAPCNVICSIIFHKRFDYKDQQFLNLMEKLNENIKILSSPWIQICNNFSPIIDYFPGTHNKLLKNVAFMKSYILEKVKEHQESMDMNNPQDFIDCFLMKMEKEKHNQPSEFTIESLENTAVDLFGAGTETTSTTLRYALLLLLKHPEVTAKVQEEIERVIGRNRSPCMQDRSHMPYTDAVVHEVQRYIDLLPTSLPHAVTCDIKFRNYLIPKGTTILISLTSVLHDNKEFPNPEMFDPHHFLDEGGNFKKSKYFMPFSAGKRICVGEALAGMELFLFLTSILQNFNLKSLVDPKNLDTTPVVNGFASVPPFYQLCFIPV
Experimental: as §17

Chain of human CYP11B1 (P15538 25-503): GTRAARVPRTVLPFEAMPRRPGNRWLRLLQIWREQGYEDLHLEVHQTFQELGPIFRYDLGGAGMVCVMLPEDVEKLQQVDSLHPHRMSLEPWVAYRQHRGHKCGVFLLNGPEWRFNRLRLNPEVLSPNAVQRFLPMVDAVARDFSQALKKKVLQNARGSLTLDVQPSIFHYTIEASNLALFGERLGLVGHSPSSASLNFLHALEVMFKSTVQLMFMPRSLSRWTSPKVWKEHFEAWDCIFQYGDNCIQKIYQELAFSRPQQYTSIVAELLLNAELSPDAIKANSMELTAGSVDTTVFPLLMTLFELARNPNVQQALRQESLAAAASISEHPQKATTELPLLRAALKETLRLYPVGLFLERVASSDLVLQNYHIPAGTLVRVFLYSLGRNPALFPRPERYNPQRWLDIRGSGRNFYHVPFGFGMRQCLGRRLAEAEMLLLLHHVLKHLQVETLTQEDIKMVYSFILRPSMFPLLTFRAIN

## [2H][C@@]1(NC(=O)CC)CCOc2c(-c3cc4c(cc3F)N(C)C(=O)CC4)cncc21 [Example 4, (R)-N-(8-(7-fluoro-1-methyl-2-oxo-1,2,3,4-tetrahydroquinolin-6-yl)-3,4-dihydro-2H-pyran[3,2-c]pyridin-4-yl-4-d)propanamide]
Human CYP11B1
  IC50: 4.8 µM
Human CYP11B2
  IC50: 0.0427 µM
  hCYP11B ½ Selectivity Fold: 112.51 Fold

## CN(C)C(=O)N[C@@H]1CCOc2c(-c3cc4c(cc3F)N(C)C(=O)CC4)cncc21 [Example 6, (R)-3-(8-(7-fluoro-1-methyl-2-oxo-1,2,3,4-tetrahydroquinolin-6-yl)-3,4-dihydro-2H-pyran[3,2-c]pyridin-4-yl)-1,1-dimethylurea]
Human CYP11B1
  IC50: > 10 µM
Human CYP11B2
  IC50: 0.0773 µM
  hCYP11B ½ Selectivity Fold: >129.37 Fold
  selectivity (in words): better selectivity

## [2H][C@@]1(NC(=O)N(C)C)CCOc2c(-c3cc4c(cc3F)N(C)C(=O)CC4)cncc21 [Example 7, (R)-3-(8-(7-Fluoro-1-methyl-2-oxo-1,2,3,4-tetrahydroquinolin-6-yl)-3,4-dihydro-2H-pyran[3,2-c]pyridin-4-yl-4-d)-1,1-dimethylurea]
Human CYP11B1
  IC50: > 10 µM
Human CYP11B2
  IC50: 0.172 µM
  hCYP11B ½ Selectivity Fold: >58 Fold

## [2H][C@@]1(NC(=O)CC)CCOc2c(-c3ccc4c(c3)CCC(=O)N4C)cncc21 [Example 2, (R)-N-(8-(1-methyl-2-oxo-1,2,3,4-tetrahydroquinolin-6-yl)-3,4-dihydro-2H-pyran[3,2-c]pyridin-4-yl-4-D)propanamide]
[1]
  Cmax: 11.9 ng/mL
  Tmax: 2 h
  half-life: 9.7 h
  AUC(0-t): 165 ng·h/mL
Aldosterone synthesis
  effect on aldosterone synthesis (in words): no potent inhibition of aldosterone synthesis
Aldosterone synthesis; 0.5 h
  Aldosterone Concentration in Plasma: 1057.1 pg/mL
Aldosterone synthesis; 1 h (ACTH at +1 hour)
  Aldosterone Concentration in Plasma: 807.59 pg/mL
Aldosterone synthesis; 2 h
  Aldosterone Concentration in Plasma: 337.76 pg/mL
Aldosterone synthesis; 4 h
  Aldosterone Concentration in Plasma: 105.97 pg/mL
Aldosterone synthesis; 6 h
  Aldosterone Concentration in Plasma: 101.15 pg/mL
Aldosterone synthesis; 12 h
  Aldosterone Concentration in Plasma: 112.02 pg/mL
Aldosterone synthesis; Pre-dose
  Aldosterone Concentration in Plasma: 432.52 pg/mL
Human CYP11B1
  IC50: 5.36 µM
Cortisol levels; 0.5 h
  Cortisol Concentration in Plasma: 1299.9 pg/mL
Cortisol levels; 1 h (ACTH at +1 hour)
  Cortisol Concentration in Plasma: 1178.3 pg/mL
Cortisol levels; 2 h
  Cortisol Concentration in Plasma: 1809.0 pg/mL
Cortisol levels; 4 h
  Cortisol Concentration in Plasma: 872.2 pg/mL
Cortisol levels; 6 h
  Cortisol Concentration in Plasma: 451.8 pg/mL
Cortisol levels; 12 h
  Cortisol Concentration in Plasma: 710.2 pg/mL
Cortisol levels; Pre-dose
  Cortisol Concentration in Plasma: 838.9 pg/mL
Human CYP11B2
  IC50: 0.0371 µM
  hCYP11B ½ Selectivity Fold: 144.47 Fold
  selectivity (in words): better selectivity

## [2H][C@@]1(NC(=O)N(C)C)CCOc2c(-c3ccc4c(c3)CCC(=O)N4C)cncc21 [Example 5, (R)-1,1-dimethyl-3-(8-(1-methyl-2-oxo-1,2,3,4-tetrahydroquinolin-6-yl)-3,4-dihydro-2H-pyran[3,2-c]pyridin-4-yl-4-d)urea]
Human CYP11B1
  IC50: 3.38 µM
Human CYP11B2
  IC50: 0.0496 µM
  hCYP11B ½ Selectivity Fold: 68.19 Fold

## CCC(=O)N[C@@H]1CCOc2c(-c3cc4c(cc3F)N(C)C(=O)CC4)cncc21 [Example 8, (R)-N-(8-(7-Fluoro-1-methyl-2-oxo-1,2,3,4-tetrahydroquinolin-6-yl)-3,4-dihydro-2H-pyran[3,2-c]pyridin-4-yl)propanamide]
[1]
  Cmax: 22.7 ng/mL
  Tmax: 2 h
  half-life: 12.7 h
  AUC(0-t): 332 ng·h/mL
[1]; same dose
  Cmax and AUC relative to the reference Baxdrostat: three times as high
[1]; same dose (0.05mpk)
  Cmax and AUC values relative to the compound of Example 2: twice as high
Aldosterone synthesis
  effect on aldosterone synthesis (in words): significantly inhibited aldosterone synthesis
Aldosterone synthesis; 0.5 h
  Aldosterone Concentration in Plasma: 557.64 pg/mL
Aldosterone synthesis; 1 h (ACTH at +1 hour)
  Aldosterone Concentration in Plasma: 350.13 pg/mL
Aldosterone synthesis; 2 h
  Aldosterone Concentration in Plasma: 139.86 pg/mL
Aldosterone synthesis; 4 h
  Aldosterone Concentration in Plasma: 81.71 pg/mL
Aldosterone synthesis; 6 h
  Aldosterone Concentration in Plasma: 84.08 pg/mL
Aldosterone synthesis; 12 h
  Aldosterone Concentration in Plasma: 91.38 pg/mL
Aldosterone synthesis; Pre-dose
  Aldosterone Concentration in Plasma: 421.96 pg/mL
Human CYP11B1
  IC50: 4.6 µM
CYP2D6
  IC50: > 50 µM
Cortisol levels; 0.5 h
  Cortisol Concentration in Plasma: 1590.4 pg/mL
Cortisol levels; 1 h (ACTH at +1 hour)
  Cortisol Concentration in Plasma: 1335.6 pg/mL
Cortisol levels; 2 h
  Cortisol Concentration in Plasma: 1990.5 pg/mL
Cortisol levels; 4 h
  Cortisol Concentration in Plasma: 818.4 pg/mL
Cortisol levels; 6 h
  Cortisol Concentration in Plasma: 410.8 pg/mL
Cortisol levels; 12 h
  Cortisol Concentration in Plasma: 487.5 pg/mL
Cortisol levels; Pre-dose
  Cortisol Concentration in Plasma: 831.6 pg/mL
CYP3A
  IC50 at 10 min: > 50 µM
CYP2C19
  IC50: > 50 µM
Human CYP11B2
  IC50: 0.0231 µM
  hCYP11B ½ Selectivity Fold: 199 Fold
  selectivity (in words): better selectivity
CYP1A2
  IC50: > 50 µM
CYP2C9
  IC50: > 50 µM

## CN(C)C(=O)N[C@@H]1CCOc2c(-c3ccc4c(c3)CCC(=O)N4C)cncc21 [Example 3, (R)-1,1-dimethyl-3-(8-(1-methyl-2-oxo-1,2,3,4-tetrahydroquinolin-6-yl)-3,4-dihydro-2H-pyran[3,2-c]pyridin-4-yl)urea]
Human CYP11B1
  IC50: 5.25 µM
Human CYP11B2
  IC50: 0.0611 µM
  hCYP11B ½ Selectivity Fold: 85.95 Fold
